The molecules below were run on Plasmodium falciparum (assay: GSK_TCMDC: Inhibition of Plasmodium falciparum 3D7 in whole erythrocytes, using parasite LDH activity as an index of growth.). Conditions: Plasmodium falciparum, 3D7.
Assay type: functional, organism-based

SMILES	XC50 [nM]
COc1ccc(-c2ccccc2CNc2nc(NCCc3ccc(O)cc3)nc(N3CCNCC3)n2)cc1	1080
O=C(N[C@H]1CCN(Cc2ccc(OCCCN3CCCCC3)cc2)C1)c1ccc(Cl)c(Cl)c1	781
COc1ccc(Cl)cc1C(=O)Nc1ccc(-c2nc3ccccc3[nH]2)cc1	774
CCCc1cc(N2CCC(N(CC)CC)C2)nc(Nc2ccc(OC)cc2)n1 (centres undefined)	168
CCCCCCCNCc1c(O)ccc2c(CNCCCCCCC)c(O)ccc12	150
O=C(NCc1ccccc1)c1nn(CCCN2CCC3(CC2)C(=O)NCN3c2ccccc2)cc1-c1ccc(Cl)c(Cl)c1	1050
N#Cc1ccc(CN2CCC(Oc3ccc(NC(=O)c4cccs4)cc3)CC2)cc1	1030
CC(C)CC(=O)NC1CCN(Cc2c(-c3cccs3)nc3ccccc3c2C(=O)N[C@@H](C)C2CCCCC2)CC1	819
CCC(N)(C#Cc1ccc(-c2c(C)[nH]c(C)c(Br)c2=O)cc1)CC	41.5
O=C(Nc1ccccc1F)N(CCCn1ccnc1)Cc1csc(-c2ccc(CNCc3ccccc3)cc2)n1	841
COc1cc(NCCCNCc2cn(S(=O)(=O)c3ccccc3)c3ccccc23)nc2ccccc12	386
O=C(NCCN1CCC(NC(=O)c2ccc(-c3ccccn3)s2)CC1)c1cccc(C(F)(F)F)c1	861
Cc1cc(N[C@@H](Cc2ccccc2)C(=O)NCc2cccc(F)c2)nc(NCCc2ccc(F)cc2)n1	649
CCc1cn2c3c(cc(C(=O)N[C@@H](Cc4cccc(F)c4)[C@H](O)CNC4CCCCC4)cc13)N(C)S(=O)(=O)CC2	29.7
Fc1ccc2[nH]c(-c3ccc(-c4ccc(CN5CCN(c6cnccn6)CC5)cc4)s3)nc2c1	617
CCN(CC)CCOc1cc2c(cc1Br)-c1cc(Br)c(OCCN(CC)CC)cc1C2=NO	1090
CC(C)(C)CCOC(=O)N1CCc2c(cc(O)c(O)c2Cl)C(c2ccc(O)cc2)C1 (centres undefined)	752
Cc1cccc2nc(-c3cccc(-c4ccc(NC(=O)COC(C)C)cc4)c3)[nH]c12	1190
CCc1cc2c3c(N)nc(N)nc3ccc2n1CC	10.3
CN(C)C1CCN(Cc2ccc(N3CCN(Cc4cccc5[nH]ccc45)CC3)nc2)CC1	1530
CCC(=O)N(c1ccccc1)C1CCN(CCCC(NC(=O)Nc2cc(C(F)(F)F)cc(C(F)(F)F)c2)c2ccc(Cl)c(Cl)c2)CC1 (centres undefined)	672
CCOc1cc(C(=O)NC2CCN(Cc3ccccc3)C2)ccc1-c1nc2cc(Cl)ccc2[nH]1 (centres undefined)	1010
COc1ccc(Cc2c(N)nc3nc(N)nc(N)c3c2C)cc1	189

SMILES	XC50 [nM]
Cc1cc(N2CCCC2)nc(Nc2ccc(NC(=O)C(C)Oc3ccccc3)cc2)n1 (centres undefined)	1140
O=C(Nc1cccc(C(F)(F)F)c1)c1ccc(S(=O)(=O)NC2CCN(CC3CCCCC3)C2)cc1 (centres undefined)	789
Oc1ccc(Nc2nc(N3CCCC3)c3ccccc3n2)cc1	270
COc1ccc2nccc([C@@H](O)CN3CCC(NC(=O)c4ccc(OC)c(N)c4)CC3)c2c1	715
COc1ccc2cc(-c3nc(-c4c(Cl)cccc4Cl)[nH]c3-c3ccnc(NCCCN4CCCCC4C)c3)ccc2c1 (centres undefined)	948
Cc1nc2nc(N)nc(N)c2c(C)c1Cc1cccc(C(F)(F)F)c1	1290
CCCCc1ccc(S(=O)(=O)Nc2ccc3c(c2)CCN(Cc2c[nH]c4cnccc24)CC3)cc1	674
CCC[C@@H](/C=N/N(C)C(=O)OC(C)(C)C)NC(=O)[C@H](CC(C)C)NC(=O)c1cc2cccc(OC)c2o1	1080
COc1cccc(-c2ccc3c(-c4ccc(F)cc4)cnc(N)c3c2)c1	807
O=C(Nc1nc2cc(S(=O)(=O)NCCCN3CCOCC3)ccc2n1CCCn1ccnc1)c1ccc(Cl)cc1	925
CS(=O)(=O)c1ccc(CCNCc2ccc(-c3ccc(CN(C(=O)C4CCCC4)C4CCN(Cc5ccccc5)CC4)cc3)nc2)cc1	832
Oc1cc(NC[C@H]2CCC[C@@H]2NCc2cc(Br)cc(Br)c2)nc2ccccc12	678
O=C(NCCCCCN1CCC(c2c[nH]c3ccccc23)CC1)c1ccc(Cl)c(Cl)c1	1360
N[C@@H](Cc1ccc(O)cc1)C(=O)NC(c1ccccc1)c1c(O)ccc2ccccc12 (some centres undefined)	694
N#Cc1ccc(CN2CCC(Oc3ccc(NC(=O)c4cccs4)cc3Cl)CC2)cc1	577
OC1(c2ccccc2)c2cc(Cl)ccc2OC1c1nc2c(Cl)ccc(Cl)c2o1 (centres undefined)	301
CCOC(=O)c1cccc(NC(=O)Nc2cc(C)nc3ccccc23)c1	286
COc1ccc(CNc2nc(NCc3ccccc3)c3cc(OC)c(OC)cc3n2)cc1OC	540
CC(=O)Nc1ccc(CN2CCC(CNC(=O)c3cc(-c4cccc(Cl)c4)cs3)C2)cc1 (centres undefined)	1120
COC(=O)C(C)NCC(=O)c1ccccc1 (centres undefined)	115
CN1CCCN(Cc2ccc(-c3ccc(NC(=O)c4cccc(C#N)c4)cc3)cc2)CC1	875
COc1ccc(Cl)cc1N1CCN(CCCNC(=O)c2ccc(-c3nc4ccc(C(F)(F)F)cc4[nH]3)c(C)c2)CC1	762
Nc1ccc2nc(C=Cc3ccccc3)[nH]c2c1	749

SMILES	XC50 [nM]
Cn1cc(Br)c(-c2cccc(Nc3ccnc4cc(-c5nccs5)ccc34)c2)n1	979
CN1CC[C@H](N(Cc2ccccc2F)c2ccc(C#N)c(Cl)c2)C1	1270
Cc1cc(-c2cnc(N)c(-c3ccc(N4CCN(C)CC4)nc3)c2)cc(C)c1O	1400
CNC(=O)C(NC(=O)c1ccccc1C(=O)OC)c1ccccc1 (centres undefined)	556
Cc1cccc(Cl)c1Nc1nnc(-c2cccc(C(=O)NC[C@@H]3CC[C@H]4C[C@@H]3C4(C)C)c2)o1	273
O=C(NC1CCC(N2CCN(c3cccc4[nH]ccc34)CC2)CC1)c1cc2cccnc2[nH]1 (centres undefined)	492
Cc1ccc(CNC(=O)c2cc3c(=O)n4cccc(C)c4nc3n(CCN3CCOCC3)c2=N)cc1	854
Cc1cccc2nc(-c3ccc(-c4cccc(NC(=O)C(=O)c5cccn5C)c4)cc3)[nH]c12	976
CCCC(C)Nc1nc(C)cc(N[C@@H](CC(C)C)C(=O)NCc2ccc(C)cc2)n1 (some centres undefined)	1010
Cc1cc(-c2ccc(CNC3Cc4ccccc4C3)cc2)ccc1S(=O)(=O)NCCN1CCCC1	704
CNC(=O)c1ccccc1Nc1nc(Nc2ccc(C(=O)O)cc2)ncc1Cl	950
COc1ccc(Nc2nccc(NCC(O)c3ccc(C(F)(F)F)cc3)n2)cc1 (centres undefined)	545
CC(=O)N(C)c1cccc(CNc2cc(C)nc(Nc3ccc(C)cc3)n2)c1	996
O=C(Nc1ccc2c(c1)OCCO2)c1cc(-c2cccnc2)nc2ccc(Cl)cc12	714
CCN1CCC(N(Cc2ccc(-c3ccc(C(F)(F)F)cc3)cc2)C(=O)Cn2c(CCc3cccc(F)c3F)cc(=O)c3cn(C)nc32)CC1	240
CC(C)CN(c1nc(C(=O)NNC(=O)[C@H](CC2CC2)NC(=O)c2cc3cc(OCCN4CCCCC4)ccc3o2)cs1)C1CC1	213
CN(C)c1ccc(-c2csc(C(=O)NCC3CCN(Cc4ccc(C(C)(C)C)cc4)C3)c2)cc1 (centres undefined)	986
CN1CCN(CCCN(Cc2ccc(-c3cccc(CNCc4ccc5c(c4)OCO5)c3)cc2)C(=O)CCC2CCCC2)CC1	1010
COc1ccc2ccccc2c1C=NN=c1cc[nH]c2ccc(F)cc12	1110
C(=N\Nc1nccc2sc(-c3ccccc3)cc12)/c1cccnc1	821
Cc1cc(N[C@@H](Cc2ccccc2)C(=O)Nc2ccccc2)nc(NCCc2cccnc2)n1	1340
CC(C)CNCc1cccc(-c2cccc(CN(CCN(C)C)C(=O)NCCc3ccccc3)c2)c1	693
CN(C)CC(O)C(O)(c1ccccc1)c1ccc(F)cc1 (centres undefined)	1150

From ChEMBL document CHEMBL1157539, “Thousands of chemical starting points for antimalarial lead identification” (Nature, 2010)
